Reference: patent US7691842B2, “Tricyclic 6-alkylidene-penems as β-lactamase inhibitors” (Wyeth LLC, priority 2002, dated 2010)
Read-outs that look alike come from different tables or passages of the source.

Experiments:
[1] = target: class A β-lactamase TEM-1 (Escherichia coli, UniProt P62593); test: β-Lactamase inhibition, IC50 determination (nitrocefin, spectrophotometric); type: biochemical, E. Coli
Method in brief: (§1)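 Purified enzymes TEM-1 (4.3 nM), Imi-1 (7.1 nM), CcrA (1.2 nM) and AmpC (2.1 nM) were preincubated with inhibitor 10 min at 25 °C in 50 mM PO4, pH 7.0. Nitrocefin (50 μg/ml) hydrolysis rates at 495 nm over 5 min gave % inhibition versus control; IC50 determined graphically.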

[2] = target: class A β-lactamase Imi-1 (Enterobacter cloacae, UniProt Q46991); test: as above; type: biochemical
class A β-lactamase Imi-1, sequence (Q46991 entry or part of it): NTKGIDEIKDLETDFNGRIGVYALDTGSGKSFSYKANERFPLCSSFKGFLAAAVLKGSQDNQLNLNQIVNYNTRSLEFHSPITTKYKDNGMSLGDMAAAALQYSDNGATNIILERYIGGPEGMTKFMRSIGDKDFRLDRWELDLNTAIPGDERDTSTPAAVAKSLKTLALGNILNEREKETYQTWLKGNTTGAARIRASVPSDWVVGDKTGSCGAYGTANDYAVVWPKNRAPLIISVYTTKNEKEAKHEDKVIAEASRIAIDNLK

class B enzyme CcrA = class B enzyme CcrA (Bacteroides fragilis, UniProt P25910); test: as above; type: biochemical; conditions: enzyme 1.2 nM; 10 min preincubation at 25° C.; nitrocefin 50 μg/ml; 50 mM PO4, pH 7.0; read-out: IC50 (nM) Class B Ccr
class B enzyme CcrA, sequence (P25910 19-249): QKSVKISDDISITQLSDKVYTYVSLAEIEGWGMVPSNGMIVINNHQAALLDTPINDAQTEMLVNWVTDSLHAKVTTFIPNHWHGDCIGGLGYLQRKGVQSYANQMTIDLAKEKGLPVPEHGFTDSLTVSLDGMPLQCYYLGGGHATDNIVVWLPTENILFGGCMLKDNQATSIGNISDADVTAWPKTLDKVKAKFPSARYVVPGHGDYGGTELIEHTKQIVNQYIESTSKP
Method in brief: as §1

class C enzyme AmpC = class C enzyme AmpC (Enterobacter cloacae, UniProt P05364); test: biochemical; design: species or system Enterobacter cloaca
class C enzyme AmpC, sequence (P05364 21-381): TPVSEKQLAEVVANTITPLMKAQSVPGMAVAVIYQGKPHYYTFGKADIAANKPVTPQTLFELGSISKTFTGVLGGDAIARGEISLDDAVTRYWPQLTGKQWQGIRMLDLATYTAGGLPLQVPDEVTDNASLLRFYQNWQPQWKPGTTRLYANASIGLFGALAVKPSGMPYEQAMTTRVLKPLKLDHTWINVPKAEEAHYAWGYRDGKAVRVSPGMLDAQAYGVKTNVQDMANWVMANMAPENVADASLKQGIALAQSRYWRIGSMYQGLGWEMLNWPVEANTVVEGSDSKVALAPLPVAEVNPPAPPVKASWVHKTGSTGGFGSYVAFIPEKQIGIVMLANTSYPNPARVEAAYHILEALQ
Method in brief: as §1

E. Cloacae GC1477 (Ampc) = test: Antimicrobial susceptibility testing, microbroth dilution MIC of piperacillin + inhibitor; type: cell-based; conditions: piperacillin combined with constant 4 μg/ml inhibitor; Inc: 35° C. for 18 hours
Method in brief: (§2)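 Microbroth dilution per NCCLS M7-A5 in Mueller-Hinton II broth: two-fold piperacillin dilutions with β-lactamase inhibitor fixed at 4 μg/ml final. Inoculum 10^5 CFU/ml; incubation 18-22 hours at 35° C. in ambient air.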

E. Coli GC2203 = test: as above; type: cell-based; conditions: piperacillin combined with constant 4 μg/ml inhibitor; Inc: 35° C. for 18 hours
Method in brief: as §2

E. Coli GC2844 = test: as above; type: cell-based; conditions: piperacillin combined with constant 4 μg/ml inhibitor; Inc: 35° C. for 18 hours
Method in brief: as §2

E. Coli GC2847 (TEM-1) = test: as above; type: cell-based; conditions: piperacillin combined with constant 4 μg/ml inhibitor; Inc: 35° C. for 18 hours
Method in brief: as §2

E. Coli GC2894 (Ampc) = test: as above; type: cell-based; conditions: piperacillin combined with constant 4 μg/ml inhibitor; Inc: 35° C. for 18 hours
Method in brief: as §2

E. Coli GC2920 (IRT-2) = test: as above; type: cell-based; conditions: piperacillin combined with constant 4 μg/ml inhibitor; Inc: 35° C. for 18 hours
Method in brief: as §2

[3] = system: P. aeruginos GC1764 (Ampc); test: as above; type: cell-based; conditions: piperacillin combined with constant 4 μg/ml inhibitor; Inc: 35° C. for 18 hours
Method in brief: as §2

[4] = system: S. Marcescens GC1781 Sme-1 + Ampc; test: as above; type: cell-based; conditions: piperacillin combined with constant 4 μg/ml inhibitor; Inc: 35° C. for 18 hours
Method in brief: as §2

S. aureus GC2216 = test: as above; type: cell-based; conditions: piperacillin combined with constant 4 μg/ml inhibitor; Inc: 35° C. for 18 hours
Method in brief: as §2

[5] = system: Clinical isolates that have been adapted to cause infection in mice; test: In vivo antibacterial protection (7 day survival of infected mice, ED50); design: species or system mice strain CD-1; conditions: Ratio of Piperacillin Inhibitor not given
Source text: In Vivo Antibacterial Protection
Female mice strain CD-1, approximately 18-22 grams, were received from Charles River Laboratories and quarantined 7 days prior to use. In addition, mice may be rendered neutropenic using cytoxan for particular studies.
Clinical isolates that have been adapted to cause infection in mice, are used in the experiment, including infections with strains of E. coli, K. pneumoniae, M. morganii, E. cloacae, S. marcescens, C. freundii, staphylococci, streptococci, P. aeruginosa and N. gonorrhoeae.
Mice are challenged by injecting 0.5 ml intraperitoneally or 0.05 ml intranasally of a predetermined bacterial inoculum suspended in broth, saline or hog gastric mucin (supplemented with dried bovine hemoglobin for N. gonorrhoeae). […] Antibacterial doses (dose concentration prepared by two fold serial dilutions of the antibiotic) are dissolved or suspended in 0.2% aqueous agar or methocel, phosphate buffered saline or an adjuvant are administered orally, subcutaneously or intravenously in the following manner: • a) Orally or subcutaneously: Dose volume of 0.5 ml administered ½ hr after infection. A second dose may be administered 3 hr. after infection for treatment of infections with more virulent organisms. • b) Intravenously: Dose volume of 0.2 ml, administered ½ hr. after infection. For the treatment of infections with more virulent organisms, more doses, up to 48 hr may be administered. (Intravenous dosing will not exceed 3 doses/24 hr period.) • c) Oral pretreatment: Under special circumstances, the pH of the stomach needs to be adjusted in order to increase the gastric stability of the antibiotic. For this purpose, 0.5 ml of phosphate buffered saline (pH7.8, 0.06M) (or specific approved adjuvant) is administered orally ½ hr after infection, followed 5 minutes later by 0.5 ml of antibiotic (also orally) contained in phosphate buffered saline (pH7.8, 0.06M). Animal Species
A detailed explanation as to the number of animals needed for the determination of in vivo efficacy follows: • A) Novel antibiotics are tested at 5 different dose levels with 5 mice per dose level at each of three routes of administration (oral, subcutaneous and intravenous). […] This would require 25 mice/route with 3 routes/antibiotic or 75 mice per novel compound tested. One to two novel antibiotics will be tested per experiment (75-150 mice) • B) The effectiveness of the new compound must be compared to that of a standard, or antibiotic of known effectiveness. Known or previously tested antibiotics are tested at 5 dose levels with 5 mice per dose level by a single route of administration, for a total of 25 mice/antibiotic. Usually 3-6 antibiotics will be tested per experiment. (75-150 mice). • C) Untreated controls—In each of the above tests, untreated animals are infected with 3 different concentrations of bacterial inoculum with 10 mice per concentration (30 mice total in each and every test). These untreated controls are used to determine and maintain the infection level between 10-100 LD50s as required for test to test comparison and validity. Determination of Protective Effects of Antibacterial Agents:
The protective effects of the antibacterial agent(s) are measured by the survival of the infected untreated as compared to the treated animals. For this determination, animals are observed for 7 days after treatment. A census of survivors is taken twice daily and at that time dead as well as moribund animals are removed. The 7 day survival ratio from three separate tests are pooled for estimation of median effective dose (ED50) by computerized program for probit analysis (Cleeland, R. and E. Squires. 1991. Evaluation of New Antimicrobials in Vitro and in Experimental Animal Infections. In Antibiotics in Laboratory Medicine”, 3rd. ed., edited by Victor Lorian. Willams and Wilkins Baltimore, Md. pp. 752-783). […]

[6] = system: class-A producing pathogens; conditions: background statement; cited from earlier work
[7] = system: class C producing organisms; conditions: background statement; cited from earlier work

class A β-lactamase TEM-1, sequence (P62593 24-286 limits assumed): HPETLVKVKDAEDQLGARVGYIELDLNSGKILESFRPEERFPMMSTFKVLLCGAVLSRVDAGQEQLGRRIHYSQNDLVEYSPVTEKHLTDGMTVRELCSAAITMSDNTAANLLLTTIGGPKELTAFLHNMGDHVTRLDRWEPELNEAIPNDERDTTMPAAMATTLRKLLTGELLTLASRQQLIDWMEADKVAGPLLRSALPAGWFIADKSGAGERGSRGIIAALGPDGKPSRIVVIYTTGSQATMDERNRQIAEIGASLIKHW

| SMILES | IC50 (class B enzyme CcrA) [nM] | melting point | IC50 [1] [nM] | IC50 [2] [nM] | IC50 (class C enzyme AmpC) [nM] | also measured |
| --- | --- | --- | --- | --- | --- | --- |
| O=C(O)C1=CS[C@@H]2/C(=C\c3cn4c5c(sc4n3)CCCC5)C(=O)N12 [Example 19, (5R),(6Z)-7-oxo-6-(5,6,7,8-tetrahydroimidazo[2,1-b][1,3]benzothiazol-2-ylmethylene)-4-thia-1-azabicyclo[3.2.0]hept-2-ene-2-carboxylic acid] | 215 |  |  |  |  | IC50 ([1]; enzyme 4.3 nM, 10 min preincubation at 25° C., nitrocefin 50 μg/ml, 50 mM PO4, pH 7.0, read-out: IC50 (nM) Class A TEM-1): 1.9 nM; IC50 ([2]; enzyme 7.1 nM, 10 min preincubation at 25° C., nitrocefin 50 μg/ml, 50 mM PO4, pH 7.0, read-out: IC50 (nM) Class A Imi): 33 nM; IC50 (class C enzyme AmpC; enzyme 2.1 nM, 10 min preincubation at 25° C., nitrocefin 50 μg/ml, 50 mM PO4, pH 7.0, read-out: IC50 (nM) Class C AmpC): 0.62 nM; Minimal Inhibitory Concentration E. Cloacae GC1477 (Ampc) (E. Cloacae GC1477 (Ampc)): 32 µg/mL; Minimal Inhibitory Concentration E. Coli GC2203 (E. Coli GC2203): 2 µg/mL; Minimal Inhibitory Concentration E. Coli GC2844 (E. Coli GC2844): 2 µg/mL; Minimal Inhibitory Concentration E. Coli GC2847 (TEM-1) (E. Coli GC2847 (TEM-1)): 8 µg/mL; Minimal Inhibitory Concentration E. Coli GC2894 (Ampc) (E. Coli GC2894 (Ampc)): 4 µg/mL; Minimal Inhibitory Concentration E. Coli GC2920 (IRT-2) (E. Coli GC2920 (IRT-2)): 2 µg/mL; Minimal Inhibitory Concentration P. aeruginos GC1764 (Ampc) [3]: 1 µg/mL; Minimal Inhibitory Concentration S. Marcescens GC1781 Sme-1 + Ampc [4]: 8 µg/mL; Minimal Inhibitory Concentration S. aureus GC2216 (S. aureus GC2216): .06 µg/mL; ED50 [5]: 63 mg/kg |
| Cc1nc2nc(/C=C3/C(=O)N4C(C(=O)[O-])=CS[C@H]34)nn2c2c1CCC2.[Na+] [Example 22, (5R,6Z)-6-[(5-methyl-7,8-dihydro-6H-cyclopenta[e][1,2,4]triazolo[1,5-a]pyrimidin-2-yl)methylene]-7-oxo-4-thia-1-azabicyclo[3.2.0]hept-2-ene-2-carboxylic acid, sodium salt] |  | 250 °C (dec.) |  |  |  |  |
| O=C([O-])C1=CS[C@@H]2/C(=C\c3nc4ncc5c(n4n3)CCC3(C5)OCCO3)C(=O)N12.[Na+] [Example 24, (5R,6Z)-6-(8′,9′-dihydro-6′H-spiro[1,3-dioxolane-2,7′-[1,2,4]triazolo[1,5-a]quinazolin]-2′-ylmethylene)-7-oxo-4-thia-1-azabicyclo[3.2.0]hept-2-ene-2-carboxylic acid, sodium salt] |  | > 250 °C (dec.) |  |  |  |  |
| Cc1nc2nc(/C=C3/C(=O)N4C(C(=O)[O-])=CS[C@H]34)nn2c2c1CCCC2.[Na+] [Example 25, (5R,6Z)-6-[(5-methyl-6,7,8,9-tetrahydro[1,2,4]triazolo[1,5-a]quinazolin-2-yl)methylene]-7-oxo-4-thia-1-azabicyclo[3.2.0]hept-2-ene-2-carboxylic acid, sodium salt] |  | 250 °C (dec.) |  |  |  |  |
| O=C([O-])C1=CS[C@@H]2/C(=C\c3cn4c5c(c(OCCOCc6ccccc6)nc4n3)CCC5)C(=O)N12.[Na+] [Example 27, (5R,6Z)-6-(5-[2-(benzyloxy)ethoxy]-7,8-dihydro-6H-cyclopenta[e]imidazo[1,2-a]pyrimidin-2-ylmethylene)-7-oxo-4-thia-1-azabicyclo[3.2.0]hept-2-ene-2-carboxylic acid, sodium salt] | 180 | > 250 °C | 12 | 33 | 3 |  |
| O=C([O-])C1=CS[C@@H]2/C(=C\c3ccc4nc5n(c4c3)CCS5)C(=O)N12.[Na+] [Example 28, (5R,6Z)-6-(2,3-dihydro[1,3]thiazolo[3,2-a]benzimidazol-6-ylmethylene)-7-oxo-4-thia-1-azabicyclo[3.2.0]hept-2-ene-2-carboxylic acid, sodium salt] | 110 | > 250 °C | 3.2 | 90 | 5.7 |  |
| O=C([O-])C1=CS[C@@H]2/C(=C\c3ccc4nc5n(c4c3)CCCS5)C(=O)N12.[Na+] [Example 29, (5R,6Z)-6-(3,4-dihydro-2H-[1,3]thiazino[3,2-a]benzimidazol-7-ylmethylene)-7-oxo-4-thia-1-azabicyclo[3.2.0]hept-2-ene-2-carboxylic acid, sodium salt] | 240 | > 250 °C | 15 | 300 | 18 |  |
| O=C([O-])C1=CS[C@@H]2/C(=C\c3ccc4nc5sccn5c4c3)C(=O)N12.[Na+] [Example 30, (5R,6Z)-7-oxo-6-([1,3]thiazolo[3,2-a]benzimidazol-6-ylmethylene)-4-thia-1-azabicyclo[3.2.0]hept-2-ene-2-carboxylic acid, sodium salt] | 97 | > 250 °C | 46 | 200 | 9.3 |  |
| O=C(O)[C@H]1/C(=C/CO)O[C@@H]2CC(=O)N21 [clavulanic acid] |  |  |  |  |  | effectiveness against class-A producing pathogens [6]: effective; effectiveness against class C producing organisms [7]: ineffective |
| CC1(C)[C@H](C(=O)O)N2C(=O)C[C@H]2S1(=O)=O [sulbactam] |  |  |  |  |  | effectiveness against class-A producing pathogens [6]: effective; effectiveness against class C producing organisms [7]: ineffective |
| C[C@]1(Cn2ccnn2)[C@H](C(=O)O)N2C(=O)C[C@H]2S1(=O)=O [tazobactam] |  |  |  |  |  | effectiveness against class-A producing pathogens [6]: effective; effectiveness against class C producing organisms [7]: ineffective |
